Reference: US20240067617A1 (Albireo AB, priority 2022, published 2024)

Assays:
[1] = Bidirectional permeability assay (Caco-2 cells); assay type: in vitro ADME; conditions: human, 10 μM in FaSSIF buffer, 120 minutes at 37° C.; for Papp A→B at 120 min, 10 µM: absorptive direction (A2B); for Papp B→A at 120 min, 10 µM: secretory direction (B2A)
Experimental: Bidirectional Permeability Assay (Caco-2 Cells)
Caco-2 cells (Evotec) were seeded at a density of 70,000 cells/well in Millicell© 24-well cell culture insert plates and maintained in an incubator (37° C., 5% CO2, 95% RH) for 21 days with media change on alternate days.
Stock solutions (10 mM) of the test compounds, atenolol (low permeability marker), propranolol (high permeability marker) and digoxin (substrate for P-gp transport pathway) were prepared in dimethylsulfoxide (DMSO). An intermediate stock solution (1 mM) was prepared by diluting 10 μL of 10 mM master stock solution with 90 μL of neat DMSO. A working stock solution (10 μM) was prepared by diluting 50 μL of 1 mM with 4950 μL of FaSSIF buffer. Post addition of compounds to the FaSSIF, samples were subjected to sonication for 2 hours, and centrifuged at 4000 RPM for 30 minutes at 37° C. The 4 mL of resultant supernatant was directly used in the assay. The final DMSO concentration in the transport experiments was 1%.
On the day of assay, Caco-2 monolayers were washed twice with transport buffer (HBSS, pH 7.4) and pre-incubated for 30 min (37° C., 5% CO2, 95% RH) in an incubator. The electrical resistance of the monolayers was measured with a Millicell®-ERS system. Monolayers with trans-epithelial electrical resistance (TEER) values greater than 350 ohm·cm^2 were selected for the assay.
The assay was conducted in absorptive direction (A2B) and secretory (B2A) directions. Transport experiments were initiated by addition of transport assay buffer (FaSSIF buffer prepared in HBSS) consisting of compounds to the donor compartment (apical chamber A-B; basolateral chamber B-A) in duplicate (n=2) wells. Drug free HBSS buffer (pH 7.4) containing 1% bovine serum albumin (BSA) was introduced to the receiver (A-B-basolateral; B-A-Apical) compartments. The volumes of apical and basolateral compartments were 0.4 and 0.8 mL, respectively. After adding dosing solution, plates were incubated in an incubator for 120 minutes at 37° C. After 120 minutes, donor and receiver samples were collected and matrix matched (1:1, 30 μL study sample+30 μL blank buffer) with the opposite buffer. Dosing samples matrix matched (1:1, 30 μL study sample+30 μL blank buffer) with the opposite buffer. Samples were processed by adding acetonitrile containing internal standard (60 μL study sample+200 μL acetonitrile containing internal standard—Tolbutamide, 500 ng/mL). Samples were vortexed and centrifuged at 4000 rpm for 10 minutes. The obtained supernatant (100 μL) was diluted with 100 μL of water and transferred to fresh 96 well plates. The concentration of compounds in the samples was analyzed by liquid chromatography tandem mass spectrometry (LC-MS/MS) method using discovery grade bio-analytical method, as applicable.
The mean apparent permeability (Papp,×10^−6 cm/sec) of the test compounds, atenolol, propranolol and digoxin were calculated as follows:
where dq/dt=rate of transport (rate of transport of compound in the receiver compartment), C0=initial concentration in the donor compartment, A=surface area of the effective filter membrane.

hLBAT = target: T1, hLBAT (Homo sapiens, UniProt Q14973); assay: LBAT (h/m) assay: 3H-taurocholic acid uptake in human LBAT-overexpressing cells; assay type: cell-based; conditions: 0.3 μM 3H-taurocholic acid + 7.5 μM cold taurocholic acid, 20 minutes at 37° C.
T1 construct: expressed in transfected cells; kept under Geneticin selection
T1 sequence (Q14973 1-349): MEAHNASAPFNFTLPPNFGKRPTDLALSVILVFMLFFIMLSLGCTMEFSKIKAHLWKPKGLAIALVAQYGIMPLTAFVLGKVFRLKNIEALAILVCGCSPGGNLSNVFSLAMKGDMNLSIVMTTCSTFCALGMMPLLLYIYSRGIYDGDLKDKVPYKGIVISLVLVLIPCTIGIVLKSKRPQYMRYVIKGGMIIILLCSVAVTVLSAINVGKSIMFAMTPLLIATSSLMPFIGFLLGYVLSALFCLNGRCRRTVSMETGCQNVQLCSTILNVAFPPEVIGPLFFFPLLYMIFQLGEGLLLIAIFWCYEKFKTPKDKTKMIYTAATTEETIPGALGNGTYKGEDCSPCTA
How it was run: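 Human or mouse LBAT-overexpressing cells given 10-point inhibitor series with 0.3 μM 3H-taurocholic acid plus cold taurocholic acid (7.5 μM human, 25 μM mouse), 0.2% DMSO, for 20 min at 37° C. Stopped on ice, washed with 1 mM unlabelled taurocholic acid; uptake measured by scintillation counting.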

| Structure (SMILES) | Papp A→B at 120 min, 10 µM [1] | Papp B→A at 120 min, 10 µM [1] | IC50 (hLBAT) |
| --- | --- | --- | --- |
| CCCCC1(CC)CN(c2ccccc2)c2cc(SC)c(CSCC(=O)O)cc2S(=O)(=O)C1 (single isomer, unassigned) [2, enantiomer 1] | 7.5 ×10⁻⁶ cm/s | 9.3 ×10⁻⁶ cm/s | 2.02 µM |
| CCCCC1(C)CN(c2ccccc2)c2cc(SC)c(CSCC(=O)O)cc2S(=O)(=O)C1 (single isomer, unassigned) [5, enantiomer 1] | 29.3 ×10⁻⁶ cm/s | 25.3 ×10⁻⁶ cm/s | 6 µM |
| CCCCC1(CC)CN(c2ccc(F)cc2)c2cc(SC)c(CSCC(=O)O)cc2S(=O)(=O)C1 (single isomer, unassigned) [7, enantiomer 1] | 24.3 ×10⁻⁶ cm/s | 21.3 ×10⁻⁶ cm/s | 5.05 µM |
